From US11655216B2 (priority 2016, dated 2023) come the findings set out here.

Where two headings read alike, the source gives them in different places.

The target in assay [1] is T1, glutathione-S-transferase (GST) tagged LXRbeta LBD (ligand binding domain) (Homo sapiens, UniProt P55055).
T1 construct: purchased Invitrogen pv4658
T1 sequence (P55055 222-460 limits assumed): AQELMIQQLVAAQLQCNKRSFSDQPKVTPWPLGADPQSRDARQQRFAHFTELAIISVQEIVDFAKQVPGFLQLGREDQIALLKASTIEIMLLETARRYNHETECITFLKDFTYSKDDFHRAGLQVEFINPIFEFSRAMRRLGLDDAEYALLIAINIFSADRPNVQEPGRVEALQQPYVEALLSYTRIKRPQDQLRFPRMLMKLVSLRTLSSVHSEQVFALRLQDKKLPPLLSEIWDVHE
Description: LanthaScreen TR-FRET Liver X Receptor Coactivator Assay, LXR beta. In kind it is biochemical. The settings on record: for EC50: LXR beta IP, potency (Inflection Point), compound-induced co-activator recruitment, TR-FRET; for Emax: read-out: LXR beta actiivty at max dose, efficacy (% Emax) in relation to reference dual agonist T0901317. The method in brief:
(§1)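 Compound + LBD (alpha or beta); add fluorescein coactivator peptide/Tb anti-GST Ab mix; incubate RT; read TR-FRET.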

The target in assay [2] is T2, glutathione-S-transferase (GST) tagged LXRalpha LBD (ligand binding domain) (Homo sapiens, UniProt Q13133).
T2 construct: purchased Invitrogen pv4655
T2 sequence (Q13133 209-447 limits assumed): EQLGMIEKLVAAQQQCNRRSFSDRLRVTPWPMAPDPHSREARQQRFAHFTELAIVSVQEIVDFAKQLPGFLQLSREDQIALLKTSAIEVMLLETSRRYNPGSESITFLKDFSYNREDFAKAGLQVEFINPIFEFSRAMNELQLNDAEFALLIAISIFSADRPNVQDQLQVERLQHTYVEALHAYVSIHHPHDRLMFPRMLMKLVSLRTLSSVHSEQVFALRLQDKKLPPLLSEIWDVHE
Description: biochemical. The settings on record: for EC50 / LXR alpha IP: potency (Inflection Point), compound-induced co-activator recruitment, TR-FRET. The method in brief:
as §1

[3] abbreviates: read-out: LXR alpha actiivty at max dose, efficacy (% Emax) in relation to reference dual agonist T0901317.

For `O=C(c1ccc(OCCCCC2CCN(C(=O)C(O)(c3ccccc3)C(F)(F)F)CC2)cc1Cl)N1CC(F)(F)C1` (single isomer, unassigned) [Example 8-4, (R or S)-1-(4-(4-(3-chloro-4-(3,3-difluoroazetidine-1-carbonyl)phenoxy)butyl)piperidin-1-yl)-3,3,3-trifluoro-2-hydroxy-2-phenylpropan-1-one], the EC50 in assay [1] was 12 nM; in assay [2] (LXR alpha IP), 48 nM. The figures for the Emax in assay [1] and in assay [2] (setting [3]) were 60% and 18%, respectively.
On the same counts, the results for `CN(C(=O)c1ccc(OCCCCC2CCN(C(=O)[C@](O)(c3ccccc3)C(F)(F)F)CC2)cc1Cl)[C@H]1CCOC1` (single isomer, unassigned) [Example 8-16, 2-chloro-N-methyl-N-((S or R)-tetrahydro-furan-3-yl)-4-(4-(1-((R or S)-3,3,3-trifluoro-2-hydroxy-2-phenylpropanoyl)piperidin-4-yl)butoxy) benzamide] are 10 nM, 116 nM, 71% and 32%.
In the case of `CC(C)N(C)C(=O)c1ccc(OCCCCC2CCN(C(=O)[C@](O)(c3ccccc3)C(F)(F)F)CC2)cc1Cl` (single isomer, unassigned) [Example 8-17, (R or S)-2-chloro-N-isopropyl-N-methyl-4-(4-(1-(3,3,3-trifluoro-2-hydroxy-2-phenylpropanoyl)piperidin-4-yl)butoxy) benzamide], in assay [1], the EC50 came to 17 nM and the Emax worked out at 50%. For the same compound, in assay [2], the “LXR alpha IP” value is given as “No IP”. For the same compound, the Emax in assay [2] (setting [3]) turned out to be 10%.
On to `CC(C[C@H]1CC12CCN(C(=O)C1(c3ccccc3)CCC1)CC2)Oc1ccc(C(=O)N(C)C)c(Cl)c1` (single isomer, unassigned) [Example 13-1, 2-chloro-N,N-dimethyl-4-((S or R)-1-((R or S)-6-(1-phenylcyclobutanecarbonyl)-6-azaspiro[2.5]octan-1-yl)propan-2-yloxy)benzamide], for which the values for the EC50 in assay [1] and in assay [2] (read-out: LXR alpha IP) were 87 nM and 762 nM, respectively. The Emax in assay [1] came out at 110%; in assay [2] (efficacy (% Emax) in relation to reference dual agonist T0901317, read-out: LXR alpha actiivty at max dose), 25%.
For the compound `CN(C)C(=O)c1ccc(OCCCCC2CCN(C(=O)C(O)(c3cccc(-c4cnn(C)c4)c3)C(F)(F)F)CC2)cc1Cl` (single isomer, unassigned) [Example 3-19, (R or S)-2-chloro-N,N-dimethyl-4-(4-(1-(3,3,3-trifluoro-2-hydroxy-2-(3-(1-methyl-1H-pyrazol-4-yl)phenyl)propanoyl)piperidin-4-yl)butoxy)benzamide], the EC50 in assay [1] is 124 nM; in assay [2] (LXR alpha IP), 1150 nM. The Emax turned out to be 24% in assay [1] and 25% in assay [2] (setting [3]).
On to `CN(C)C(=O)c1ccc(OCCCCC2CCN(C(=O)C(C)(O)c3ccccc3)CC2)cc1Cl` (single isomer, unassigned) [Example 3-10, (S or R)-2-chloro-4-(4-(1-(2-hydroxy-2-phenylpropanoyl)piperidin-4-yl)butoxy)-N,N-dimethylbenzamide], for which, in assay [1], the EC50 came to 353 nM and the Emax was 55%. Also, the “LXR alpha IP” value in assay [2] is reported as “No IP”. Besides, the Emax in assay [2] (setting [3]) was found to be 5%.
On to `CN(C)C(=O)c1ccc(OCCC2CC23CCN(C(=O)C2(c4ccccc4Cl)CCC2)CC3)cc1Cl` (single isomer, unassigned) [Example 12-5, (R or S)-2-chloro-4-(2-(6-(1-(2-chlorophenyl)cyclobutanecarbonyl)-6-azaspiro[2.5]octan-1-yl)ethoxy)-N,N-dimethylbenzamide], for which the EC50 was determined as 3 nM in assay [1] and 91 nM in assay [2] (LXR alpha IP). Besides, the figures for the Emax in assay [1] and in assay [2] (setting [3]) were 54% and 49%, respectively.
On the same counts, the results for `CN(C)C(=O)c1ccc(OC[C@@H]2C[C@H]2C2CCN(C(=O)[C@](O)(c3ccccc3)C(F)(F)C(F)(F)F)CC2)cc1Cl` (single isomer, unassigned) [Example 32-3, 2-chloro-N,N-dimethyl-4-(((1R,2S or 1S,2R)-2-(1-((R or S)-3,3,4,4,4-pentafluoro-2-hydroxy-2-phenylbutanoyl)piperidin-4-yl)cyclopropyl)methoxy) benzamide] are 105 nM, 1380 nM, 125% and 17%.
For the compound `CN(C)C(=O)c1ccc(OCCCC2CC23CCN(C(=O)C2(c4ccccc4)CCCC2)CC3)cc1Cl` (single isomer, unassigned) [Example 14-2, (R or S)-2-chloro-N,N-dimethyl-4-(3-(6-(1-phenylcyclopentanecarbonyl)-6-azaspiro[2.5]octan-1-yl)propoxy)benzamide], the EC50 worked out at 28 nM in assay [1] and 424 nM in assay [2] (LXR alpha IP). Moreover, the Emax in assay [1] came out at 86%; in assay [2] (setting [3]), 17%.
As to `COc1cccc(C(O)(C(=O)N2CCC(CCCCOc3ccc(C(=O)N(C)C)c(Cl)c3)CC2)C(F)(F)F)c1` (single isomer, unassigned) [Example 3-13, (S or R)-2-chloro-N,N-dimethyl-4-(4-(1-(3,3,3-trifluoro-2-hydroxy-2-(3-methoxyphenyl)propanoyl)piperidin-4-yl)butoxy)benzamide], in assay [1], the EC50 was determined as 394 nM and the Emax worked out at 61%. In assay [2], the “LXR alpha IP” value was “No IP”. Further, the Emax in assay [2] (setting [3]) stood at 0%.
As for `CN(C)C(=O)c1ccc(OCCCCC2CCN(C(=O)C(O)(c3cccc(F)c3)C(F)(F)F)CC2)cc1Cl` (single isomer, unassigned) [Example 3-4, (R or S)-2-chloro-N,N-dimethyl-4-(4-(1-(3,3,3-trifluoro-2-(3-fluorophenyl)-2-hydroxypropanoyl)piperidin-4-yl)butoxy)benzamide], the EC50 in assay [1] turned out to be 7 nM; in assay [2] (LXR alpha IP), 126 nM. The Emax amounted to 73% in assay [1] and 41% in assay [2] (setting [3]).
On the same counts, the results for `O=C(c1ccc(OCCCCC2CCN(C(=O)C(O)(c3ccccc3)C(F)(F)F)CC2)cc1Cl)N1C[C@@H]2CC[C@H]1C2` (single isomer, unassigned) [Example 8-15, (R or S)-1-(4-(4-(4-((1S,4R)-2-azabicyclo[2.2.1]heptane-2-carbonyl)-3-chlorophenoxy)butyl)piperidin-1-yl)-3,3,3-trifluoro-2-hydroxy-2-phenylpropan-1-one] are 64 nM, 410 nM, 36% and 9%.
For `CN(C)C(=O)c1ccc(OC[C@H]2C[C@@H]2C2CCN(C(=O)C(C)(C)c3ccccc3)CC2)cc1Cl` (single isomer, unassigned) [Example 32-6, 2-chloro-N,N-dimethyl-4-(((1S,2R or 1R,2S)-2-(1-(2-methyl-2-phenylpropanoyl)piperidin-4-yl)cyclopropyl)methoxy) benzamide], in that order: 42 nM, 631 nM, 75% and 33%.
In turn, `CC1(C)CCN(C(=O)c2ccc(OCCCCC3CCN(C(=O)C(O)(c4ccccc4)C(F)(F)F)CC3)cc2Cl)C1` (single isomer, unassigned) [Example 8-5, (R or S)-1-(4-(4-(3-chloro-4-(3,3-dimethyl-pyrrolidine-1-carbonyl)phenoxy)butyl)piperidin-1-yl)-3,3,3-trifluoro-2-hydroxy-2-phenylpropan-1-one] showed an EC50 in assay [1] of 18 nM. For the same compound, the Emax in assay [1] came out at 27%; in assay [2] (setting [3]), 1%. For the same compound, the “LXR alpha IP” value in assay [2] was “No IP”.
With `CN(C)C(=O)c1ccc(OC2CC(CC3CCN(C(=O)[C@](O)(c4ccccc4)C(F)(F)F)CC3)C2)cc1Cl` (single isomer, unassigned) [Example 37-11, (R or S)-2-chloro-N,N-dimethyl-4-(3-((1-(3,3,3-trifluoro-2-hydroxy-2-phenylpropanoyl)piperidin-4-yl)methyl)cyclobutoxy) benzamide], the EC50 was found to be 92 nM in assay [1] and 563 nM in assay [2] (read-out: LXR alpha IP). Moreover, the Emax in assay [1] was 113%; in assay [2] (setting [3]) it was 33%.
Turning to `COc1cccc([C@](O)(C(=O)N2CCC(CCCC(C)Oc3ccc(C(=O)N(C)C)c(Cl)c3)CC2)C(F)(F)F)c1` (single isomer, unassigned) [Example 25-2, 2-chloro-N,N-dimethyl-4-((R or S)-5-(1-((S or R)-3,3,3-trifluoro-2-hydroxy-2-(3-methoxyphenyl)propanoyl)piperidin-4-yl)pentan-2-yloxy)benzamide], the EC50 turned out to be 98 nM in assay [1] and 1360 nM in assay [2] (LXR alpha IP). In addition, the Emax was determined as 84% in assay [1] and 12% in assay [2] (setting [3]).
